The values below come from patent publication US9617286B2, “Fungicide N-[(trisubstitutedsilyl)methyl]-carboxamide derivatives” (BAYER INTELLECTUAL PROPERTY GMBH, priority 2011, dated 2017).

For one series, the system named is Sphaerotheca fuliginea. Briefly: In vivo preventive test on Sphaerotheca fuliginea (powdery mildew on cucurbits). As to conditions: gherkin plants, preventive spray, 500 ppm of active ingredient, grading 12 days after contamination. The method, boiled down:
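Gherkin plants at cotyledon stage Z11 were sprayed with compound and inoculated 24 h later with Sphaerotheca fuliginea spores (100 000 spores per mL). Incubation was at about 20 °C and 70–80% relative humidity. Efficacy (%) was graded 12 days post-inoculation against solvent-treated controls.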

The next series has as its system Alternaria solani. The series is described as follows: In vivo preventive test on Alternaria solani (tomato). As to conditions: preventive spray, 500 ppm of active ingredient, evaluated 7 days after inoculation.
The test system of series [1] is Pyrenophora teres. Briefly: In vivo preventive test on Pyrenophora teres (barley). Conditions: preventive spray (DMF/alkylaryl polyglycol ether), 500 ppm of active ingredient, evaluated 7-9 days after inoculation. The essentials:
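Young barley plants sprayed preventively with compound in DMF/emulsifier diluted in water, then inoculated one day later with aqueous P. teres spore suspension. Held 48 h at 22 °C and 100% relative humidity, then greenhouse at about 20 °C and 80% humidity.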

Series [2] concerns Pyrenophora teres. The series is described as follows: In vivo preventive test on Pyrenophora teres (barley) - 2nd test. Conditions: 2nd test (acetone/tween/DMSO), 500 ppm of active ingredient, grading 14 days after contamination. As for the experimental part:
Barley plants (“Plaisant” variety), sown in starter cups on a 50/50 peat soil pozzolana substrate and grown at 22° C., are treated at the 1 leaf stage (10 cm height) by spraying with the active ingredient prepared as described above. Plants, used as controls, are treated with the mixture of acetone/tween/DMSO/water not containing the active material. After 24 hours, the plants are contaminated by spraying the leaves with an aqueous suspension of Pyrenophora teres spores (12 000 spores per mL). The spores are collected from a 12-day-old culture. The contaminated barley plants are incubated for 48 hours at 20° C. and at 100% relative humidity, and then for 12 days at 20° C. at 70-80% relative humidity. Grading (% of efficacy) is carried out 14 days after the contamination, in comparison with the control plants.

For another series, the system named is Septoria tritici. Briefly: In vivo preventive test on Septoria tritici (wheat). Conditions: preventive spray, 500 ppm of active ingredient, grading 24 days after contamination. The method, boiled down: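 Wheat (Scipion) at the 1-leaf stage was sprayed with compound, then inoculated 24 h later with Septoria tritici spores (500 000 spores/mL). Plants were held 72 h at 18 °C, 100% RH, then 21 days at 90% RH. Efficacy (%) was graded 24 days post-inoculation versus solvent-treated controls.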

The test system of a further series is Puccinia recondita. The series is described as follows: In vivo preventive test on Puccinia recondita (brown rust on wheat). Conditions: preventive spray, 500 ppm of active ingredient, grading 12 days after contamination. The method, boiled down:
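Wheat (Scipion) at the 1-leaf stage was sprayed with compound and inoculated 24 h later with P. recondita spores (100 000 spores/mL). Plants were held 24 h at 20° C/100% RH, then 10 days at 20° C/70-80% RH. Efficacy (%) was graded 12 days post-inoculation against solvent-treated controls.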

Another series concerns Botrytis cinerea. Briefly: In vivo preventive test on Botrytis cinerea (grey mould) - 2nd test. Conditions: gherkin plants, 2nd test (acetone/tween/DMSO), 500 ppm of active ingredient, grading 4 to 5 days after contamination. As for the experimental part:
Gherkin plants (“Vert petit de Paris” variety), sown in starter cups on a 50/50 peat soil pozzolana substrate and grown at 24° C., are treated at the Z11 cotyledon stage by spraying with the active ingredient prepared as described above. Plants, used as controls, are treated with the mixture of acetone/tween/DMSO/water not containing the active material. After 24 hours, the plants are contaminated by spraying the cotyledons with an aqueous suspension of cryopreserved Botrytis cinerea spores (50 000 spores per mL). The spores are suspended in a nutrient solution composed of 10 g/L of PDB, 50 g/L of D-Fructose, 2 g/L of NH4NO3 and 1 g/L of KH2PO4. The contaminated gherkin plants are incubated at 17° C. and at 90% relative humidity. Grading (% of efficacy) is carried out 4 to 5 days after the contamination, in comparison with the control plants.

The test system of the next series is Uromyces appendiculatus. The series is described as follows: In vivo preventive test on Uromyces appendiculatus (bean rust). Conditions: bean plants, preventive spray, 500 ppm of active ingredient, grading 11 days after contamination. How it is done:
Bean plants (“Saxa” variety), sown in starter cups on a 50/50 peat soil pozzolana substrate and grown at 24° C., are treated at the 2 leaf stage (9 cm height) by spraying with the active ingredient prepared as described above. Plants, used as controls, are treated with the mixture of acetone/tween/DMSO/water not containing the active material. After 24 hours, the plants are contaminated by spraying the leaves with an aqueous suspension of Uromyces appendiculatus spores (150 000 spores per mL). The spores are collected from infected plants and are suspended in water containing 2.5 mL/L of Tween 80 at 10%. The contaminated bean plants are incubated for 24 hours at 20° C. and at 100% relative humidity, and then for 10 days at 20° C. and at 70-80% relative humidity. Grading (% of efficacy) is carried out 11 days after the contamination, in comparison with the control plants.

Series [3] can be described thus: log P by HPLC on reversed-phase column (C 18), EEC Directive 79/831 Annex V.A8. Format: physicochemical. As to conditions: 40° C., 0.1% aqueous formic acid and acetonitrile, linear gradient 10% to 90% acetonitrile. The method, boiled down: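 Reversed-phase C18 HPLC at 40° C, 0.1% aqueous formic acid/acetonitrile gradient from 10% to 90% acetonitrile. log P derived from retention times by linear interpolation between unbranched alkan-2-ones (3–16 carbons) of known log P.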

Another series concerns Alternaria brassicae. The series is described as follows: In vivo preventive test on Alternaria brassicae (leaf spot on radish). Conditions: preventive spray, 500 ppm of active ingredient, grading 6 days after contamination. As for the experimental part:
Radish plants (“Pernod Clair” variety), sown in starter cups on a 50/50 peat soil pozzolana substrate and grown at 17° C., are treated at the cotyledon stage by spraying with the active ingredient prepared as described above. Plants, used as controls, are treated with the mixture of acetone/tween/DMSO/water not containing the active material. After 24 hours, the plants are contaminated by spraying the cotyledons with an aqueous suspension of Alternaria brassicae spores (50 000 spores per mL). The spores are collected from a 15-day-old culture. The contaminated radish plants are incubated at 20° C. and at 100% relative humidity. Grading (% of efficacy) is carried out 6 days after the contamination, in comparison with the control plants.

The next series deals with Pyricularia oryzae. Format: in vivo. Conditions: rice, preventive spray, 500 ppm of active ingredient, grading 6 days after contamination.
In the next series the test system is Leptosphaeria nodorum. The series is described as follows: In vivo preventive test on Leptosphaeria nodorum (wheat). Conditions: preventive spray, 500 ppm of active ingredient, evaluated 7-9 days after inoculation. How it is done:
Solvent: 49 parts by weight of N,N-dimethylformamide Emulsifier: 1 part by weight of alkylaryl polyglycol ether To produce a suitable preparation of active compound, 1 part by weight of active compound is mixed with the stated amounts of solvent and emulsifier, and the concentrate is diluted with water to the desired concentration. To test for preventive activity, young plants are sprayed with a preparation of active compound at the stated rate of application. One day after this treatment, the plants are inoculated with an aqueous spore suspension of Leptosphaeria nodorum. The plants remain for 48 hours in an incubation cabinet at 22° C. and a relative atmospheric humidity of 100%. Then the plants are placed in a greenhouse at a temperature of approximately 22° C. and a relative atmospheric humidity of approximately 90%.

As for `C[Si](C)(CNC(=O)c1cccnc1C(F)F)c1ccccc1` [Example 1, 2-(difluoromethyl)-N-{[dimethyl(phenyl)silyl]methyl}nicotinamide], the Efficacy in the series with Sphaerotheca fuliginea is listed as 98%; in the series on Alternaria solani it was 95%; in the series on Pyrenophora teres [1] it was 90%; in the series with Pyrenophora teres [2], 79%; in the series with Septoria tritici it was 100%; with Puccinia recondita, 88%. For the same compound, the Efficacy with Botrytis cinerea amounted to 89%; with Uromyces appendiculatus, 100%. In [3], this compound showed a chromatographic logP of 2.71.

`C[Si](C)(CNC(=O)c1cccnc1C(F)F)c1ccccc1Cl` [Example 22]: the Efficacy was 78% in the series on Sphaerotheca fuliginea; 96% in the series with Septoria tritici; 100% in the series on Puccinia recondita; 92% in the series with Botrytis cinerea; 96% in the series with Uromyces appendiculatus. This compound came in with a logP in series [3] of 3.06.

Turning to `C[Si](C)(CN(C(=O)c1cccnc1C(F)F)C1CC1)c1ccc(F)cc1Cl` [Example 45], the Efficacy was 83% with Sphaerotheca fuliginea; 80% in the series on Septoria tritici; 75% in the series on Puccinia recondita; 90% with Alternaria brassicae; 83% in the series on Pyricularia oryzae. This compound also had a logP in series [3] of 3.96.

Regarding `C[Si](C)(CN(C(=O)c1cccnc1Cl)C1CC1)c1ccc(F)cc1Cl` [Example 46], in the series on Pyricularia oryzae, the Efficacy was found to be 92%. The same compound had a logP in series [3] of 4.06.

In the case of `C[Si](C)(CN(C(=O)c1cccnc1C(F)F)C1CC1)c1ccc(Cl)cc1Cl` [Example 62], the Efficacy is recorded as 79% in the series on Sphaerotheca fuliginea; 94% in the series with Alternaria solani; 100% with Pyrenophora teres [1]; 93% in the series on Pyrenophora teres [2]; 100% in the series with Septoria tritici; 92% with Puccinia recondita. The same compound registered an Efficacy with Leptosphaeria nodorum of 70%. In [3], this compound had a logP of 4.51.
